Measured values as given in ChEMBL document CHEMBL5532748, “Design, synthesis and antibacterial activity evaluation of ebselen derivatives in NDM-1 producing bacteria” (RSC Med Chem, 2024).
Active and inactive are the calls of the source. The rule behind the calls is not given here.

What was measured:
Enterobacter cloacae [1] = assay: Antibacterial activity against Enterobacter cloacae producing NDM-1, IMP-4 and TEM-1 beta-lactamases in presence of meropenem; format: functional
Escherichia coli [2] = assay: Antibacterial activity against Escherichia coli TG-1 transfected with Klebsiella pneumoniae full-length NDM-1 beta-lactamase gene; format: functional
Klebsiella pneumoniae [3] = assay: Synergistic antibacterial activity against Klebsiella pneumoniae producing NDM-1, KPC-2 and SHV-12 beta-lactamases assessed as fractional inhibitory concentration index in presence of meropenem; format: functional
Escherichia coli [4] = assay: Antibacterial activity against Escherichia coli BJE-4 expressing NDM-1 gene; format: functional
Caco-2 [5] = assay: Antibacterial activity against Salmonella lomita SL131 infected in human Caco-2 cells assessed as reduction in bacterial survival rate at 32 to 64 ug/ml incubated for 6 hrs in presence of meropenem by agar dilution method; format: functional, cell-based; settings: Salmonella enterica subsp. enterica serovar Lomita, dose 32-64 µg/ml
Escherichia coli [6] = assay: Antibacterial activity against Escherichia coli TG-1 transfected with Klebsiella pneumoniae full-length NDM-1 beta lactamase gene incubated in presence of meropenem; format: functional
HEK-293T = assay: Cytotoxicity against HEK293T cells assessed as reduction in cell viability at 8 to 64 ug/ml incubated for 48 hrs by MTT assay; format: toxicity, cell-based; settings: human, dose 8-64 µg/ml
Enterobacter cloacae [7] = assay: Synergistic antibacterial activity against Enterobacter cloacae producing NDM-1, TEM-1 and SHV-12 beta-lactamases assessed as fractional inhibitory concentration index in presence of meropenem; format: functional
Citrobacter freundii [8] = assay: Antibacterial activity against Citrobacter freundii producing NDM-1 and SHV-12 in presence of meropenem; format: functional
Caco-2 [9] = assay: Antibacterial activity against Salmonella lomita SL131 infected in human Caco-2 cells assessed as reduction in bacterial survival rate at 64 ug/ml incubated for 6 hrs by agar dilution method; format: functional, cell-based; settings: Salmonella enterica subsp. enterica serovar Lomita, dose 64.0 µg/ml
Enterobacter cloacae [10] = assay: Antibacterial activity against Enterobacter cloacae producing NDM-1, TEM-1 and SHV-12 beta-lactamase in presence of meropenem; format: functional
Citrobacter freundii [11] = assay: Synergistic antibacterial activity against Citrobacter freundii producing NDM-1, CTX-M-3 and KPC-2 beta-lactamases assessed as fractional inhibitory concentration index in presence of meropenem; format: functional
Escherichia coli [12] = assay: Synergistic antibacterial activity against Escherichia coli producing NDM-1, CTX-M-15 and SHV-12 beta-lactamases assessed as fractional inhibitory concentration index in presence of meropenem; format: functional
Escherichia coli [13] = assay: Antibacterial activity against Escherichia coli BJE-4 expressing NDM-1 gene in presence of meropenem; format: functional
Escherichia coli [14] = assay: Synergistic antibacterial activity against Escherichia coli BJE-4 expressing NDM-1 gene assessed as fractional inhibitory concentration index in presence of meropenem; format: functional
Enterobacter cloacae [15] = assay: Synergistic antibacterial activity against Enterobacter cloacae producing NDM-1, IMP-4 and TEM-1 beta-lactamases assessed as fractional inhibitory concentration index in presence of meropenem; format: functional
Enterobacter cloacae [16] = assay: Antibacterial activity against Enterobacter cloacae producing NDM-1, IMP-4 and TEM-1 beta-lactamases; format: functional
Citrobacter freundii [17] = assay: Antibacterial activity against Citrobacter freundii producing NDM-1, CTX-M-3 and KPC-2 beta-lactamases; format: functional
Enterobacter cloacae [18] = assay: Antibacterial activity against Enterobacter cloacae producing NDM-1, CTX-M-14 and TEM-1 beta-lactamases in presence of meropenem; format: functional
Klebsiella pneumoniae [19] = assay: Antibacterial activity against Klebsiella pneumoniae producing NDM-1, KPC-2 and SHV-12 beta-lactamases in presence of meropenem; format: functional
[20] = target: Metallo-beta-lactamase type 2 (Bacteria) (UniProt C7C422); assay: Binding affinity to wild type NDM-1 (unknown origin) assessed as change in NDM-1 enzyme complex at 100 uM by ESI-MS analysis
Sequence of Metallo-beta-lactamase type 2 (Bacteria) (C7C422 whole entry): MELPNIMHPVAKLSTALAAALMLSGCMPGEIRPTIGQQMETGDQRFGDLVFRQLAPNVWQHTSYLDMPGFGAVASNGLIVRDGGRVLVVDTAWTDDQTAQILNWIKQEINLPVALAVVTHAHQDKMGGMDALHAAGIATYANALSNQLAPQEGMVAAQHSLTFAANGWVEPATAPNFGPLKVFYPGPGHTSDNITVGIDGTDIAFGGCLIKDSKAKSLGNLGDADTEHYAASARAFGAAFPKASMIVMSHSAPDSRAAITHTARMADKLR

Escherichia coli [21] = assay: Synergistic antibacterial activity against Escherichia coli producing NDM-1 and CTX-M-15 beta-lactamases assessed as fractional inhibitory concentration index in presence of meropenem; format: functional
Citrobacter freundii [22] = assay: Synergistic antibacterial activity against Citrobacter freundii producing NDM-1 and SHV-12 beta-lactamases assessed as fractional inhibitory concentration index in presence of meropenem; format: functional
Citrobacter freundii [23] = assay: Antibacterial activity against Citrobacter freundii producing NDM-1, CTX-M-3 and KPC-2 beta-lactamases in presence of meropenem; format: functional
Klebsiella pneumoniae [24] = assay: Antibacterial activity against Klebsiella pneumoniae producing NDM-1, KPC-2 and SHV-12 beta-lactamases; format: functional
Escherichia coli [25] = assay: Antibacterial activity against Escherichia coli producing NDM-1 and CTX-M-15 beta lactamases; format: functional
Escherichia coli [26] = assay: Antibacterial activity against Escherichia coli producing NDM-1, CTX-M-15 and SHV-12 beta-lactamases in presence of meropenem; format: functional
Escherichia coli [27] = assay: Synergistic antibacterial activity against Escherichia coli TG-1 transfected with Klebsiella pneumoniae full-length NDM-1 beta lactamase gene assessed as fractional inhibitory concentration index in presence of meropenem; format: functional
Citrobacter freundii [28] = assay: Antibacterial activity against Citrobacter freundii producing NDM-1 and SHV-12 beta-lactamases; format: functional
Enterobacter cloacae [29] = assay: Antibacterial activity against Enterobacter cloacae producing NDM-1, TEM-1 and SHV-12 beta-lactamases; format: functional
Escherichia coli [30] = assay: Antibacterial activity against Escherichia coli producing NDM-1 and CTX-M-15 beta-lactamases in presence of meropenem; format: functional
Enterobacter cloacae [31] = assay: Antibacterial activity against Enterobacter cloacae producing NDM-1, CTX-M-14 and TEM-1 beta-lactamases; format: functional
[32] = target: Metallo-beta-lactamase type 2 (Bacteria, UniProt C7C422); assay: Inhibition of NDM-1 (unknown origin) using nitrocefin as substrate incubated for 15 to 60 mins by absorption based analysis
Sequence of Metallo-beta-lactamase type 2 (C7C422 whole entry): as above

Enterobacter cloacae [33] = assay: Synergistic antibacterial activity against Enterobacter cloacae producing NDM-1, CTX-M-14 and TEM-1 beta-lactamases assessed as fractional inhibitory concentration index in presence of meropenem; format: functional
Escherichia coli [34] = assay: Antibacterial activity against Escherichia coli producing NDM-1, CTX-M-15 and SHV-12 beta lactamases; format: functional

CC(C)(C)OC(=O)NCCCCCCn1[se]c2ccccc2c1=O
MIC (Enterobacter cloacae [1]): 16 µg/mL | MIC (Escherichia coli [2]): > 64 µg/mL | fractional inhibitory concentration index (FICI) (Klebsiella pneumoniae [3]): 0.5 | MIC (Escherichia coli [4]): > 16 µg/mL | Activity (Caco-2 [5]): Active | MIC (Escherichia coli [6]): 4 µg/mL | Activity (HEK-293T): Non-Toxic | fractional inhibitory concentration index (FICI) (Enterobacter cloacae [7]): 0.125 | MIC (Citrobacter freundii [8]): 8 µg/mL | Activity (Caco-2 [9]): inactive | MIC (Enterobacter cloacae [10]): 4 µg/mL | fractional inhibitory concentration index (FICI) (Citrobacter freundii [11]): 0.375 | fractional inhibitory concentration index (FICI) (Escherichia coli [12]): 0.25 | MIC (Escherichia coli [13]): 4 µg/mL | fractional inhibitory concentration index (FICI) (Escherichia coli [14]): 0.313 | fractional inhibitory concentration index (FICI) (Enterobacter cloacae [15]): 0.5 | MIC (Enterobacter cloacae [16]): > 64 µg/mL | MIC (Citrobacter freundii [17]): > 128 µg/mL | MIC (Enterobacter cloacae [18]): 8 µg/mL | MIC (Klebsiella pneumoniae [19]): 16 µg/mL | Activity [20]: Active | fractional inhibitory concentration index (FICI) (Escherichia coli [21]): 0.25 | fractional inhibitory concentration index (FICI) (Citrobacter freundii [22]): 0.25 | MIC (Citrobacter freundii [23]): 16 µg/mL | MIC (Klebsiella pneumoniae [24]): > 64 µg/mL | MIC (Escherichia coli [25]): > 64 µg/mL | MIC (Escherichia coli [26]): 8 µg/mL | fractional inhibitory concentration index (FICI) (Escherichia coli [27]): 0.125 | MIC (Citrobacter freundii [28]): > 64 µg/mL | MIC (Enterobacter cloacae [29]): > 64 µg/mL | MIC (Escherichia coli [30]): 8 µg/mL | MIC (Enterobacter cloacae [31]): > 128 µg/mL | IC50 [32]: 26.8 µM | fractional inhibitory concentration index (FICI) (Enterobacter cloacae [33]): 0.188 | MIC (Escherichia coli [34]): > 64 µg/mL
